Test results reported in paper PMC11063903, “Engineering a human P2X2 receptor with altered ligand selectivity in yeast” (The Journal of Biological Chemistry, 2024).

How the values were obtained:
[1] = test system: Crz1p nuclear localization (calcineurin pathway) in WT-P2X2 strain; assay: GFP-Crz1p nuclear localization in P2X2 yeast after ATP injection; type: cell-based, S. cerevisiae; conditions: five minutes after ATP injection, 200 μM ATP (f.c.)
Text: As further validation of P2X2 function in yeast, we sought to investigate whether P2X2 could trigger the calcineurin pathway, which is a native pathway controlled by calcium. After intracellular calcium levels rise, calcineurin regulates the nuclear localization of transcription factor Crz1p ([27]). To test if unnatural ion channels could activate this pathway, a GFP-tagged Crz1p was co-expressed with P2X2 in yeast. […] The degree of nuclear localization was double that of a negative control mutant P2X receptor.
Yeast strains EG.y156 WT-P2X2 or EG.y66 broken-P2X2 were transformed with EG.B723 GFP-tagged Crz1p. Yeast were cultured and induced as previously described. Cells were loaded onto a cell imaging microplate (Eppendorf, cat. no. 0030741030) that was pre-treated with Poly-D-lysine (50 μg/ml). Cells (50 μl) were attached to the plate for 30 min at room temperature, and wells were then gently washed three times with media to remove non-adherent cells. Cells were resuspended in 100 μl and imaged on a Cytation 5 Cell Imaging Multi-Mode reader. Cells were imaged before injection with the appropriate substrate, immediately after injection, and 5 or 10 min after injection. […] Nuclear localization events were automatically counted in Ilastik (https://www.ilastik.org/). Percent nuclear localization was counted as nuclear localization events divided by total cells.

[2] = biological target: T1, P2X2 Y299H (Homo sapiens, UniProt Q9UBL9, Y299H); assay: Site-saturation screen of ligand-binding domain with ATP, Y299H; type: cell-based; conditions: 500 μM ATP, ± sd
T1 construct: expressed in transfected cells; host or cells: S. cerevisiae BY4741 background
T1 sequence (Q9UBL9 whole entry Y299H, the tested form may be a part): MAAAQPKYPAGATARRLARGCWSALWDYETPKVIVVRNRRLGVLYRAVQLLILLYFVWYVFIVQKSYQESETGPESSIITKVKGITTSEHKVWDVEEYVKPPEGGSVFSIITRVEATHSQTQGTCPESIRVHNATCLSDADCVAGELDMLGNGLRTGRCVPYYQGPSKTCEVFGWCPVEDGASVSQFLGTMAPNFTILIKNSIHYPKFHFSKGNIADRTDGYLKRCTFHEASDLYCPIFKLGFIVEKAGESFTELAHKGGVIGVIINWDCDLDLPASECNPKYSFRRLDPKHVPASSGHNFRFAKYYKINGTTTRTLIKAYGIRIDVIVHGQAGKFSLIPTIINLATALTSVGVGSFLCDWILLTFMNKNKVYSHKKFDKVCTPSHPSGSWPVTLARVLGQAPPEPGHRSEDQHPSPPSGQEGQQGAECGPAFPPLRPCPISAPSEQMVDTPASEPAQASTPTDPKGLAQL
Text: The yeast P2X2 screening platform poses an opportunity to probe the structure-function of the ligand-binding domain in detail. The conserved P2X “NFR” motif at residues 300 to 302 is directly involved in bonding to the ATP triphosphate moiety ([41]), so we mutagenized residues at or near this motif (298–304), ultimately covering 133 variants (7 sites, 19 residues each). […] We compared our results to phylogenetic data based on a multiple sequence alignment (MSA) from a curated set of 419 related P2X homologs (Figs. 3B, and S5; Table S1).
Figure 3 Structure-function analysis of the ligand binding domain.A, heat map summarizing the screening data of ATP with seven site-saturation libraries surrounding the NFR-motif. B, sequence-logo plot of the mutagenized residues and percent identity scores as determined from MSA. C, homology model of P2X2 colored by sequence conservation as calculated from a multiple sequence alignment of 419 related P2X genes. Conservation is scored on a log scale where maroon is more conserved and blue is less conserved. D, ATP in the ligand-binding pocket of P2X2. […]
GCaMP assays were performed as follows. […] Cells were loaded onto a black, clear bottom microplate and imaged on a FlexStation3 plate reader. […] Fluorescence was measured with an excitation at 485 nm, and emission 525 nm. […] For strains with mScarlet, fluorescence was read with excitation 570 nm/emission 610 nm. […]

Nc1ncnc2c1ncn2[C@@H]1O[C@H](COP(=O)(O)OP(=O)(O)OP(=O)(O)O)[C@@H](O)[C@H]1O [ATP]
degree of Crz1p nuclear localization relative to negative control mutant P2X receptor [1]: double | signal relative to WT [2]: 11 ± 5%
